Data as given in PubChem BioAssay AID192 (DTP/NCI, 2004).
Several values for one entry are separate records, joined by “and”; a condition that tells them apart may be missing. Equal values may be shown once. Inconclusive results and toxic doses are left out.

Test system: BDF1 mice, B16 melanoma ip, median survival T/C
Assay: NCI In Vivo Anticancer Drug Screen. Data for tumor model B16 Melanoma (intraperitoneal) in B6D2F1 (BDF1) mice
Conditions: endpoint: median survival time, higher = longer survival
How it was run: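 Each result divides a survival or tumor-size measurement in the compound-treated group by the same measurement in the vehicle group.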

[1] = dose: 25.0 mg/kg/injection, schedule: Q01DX009 (ip), vehicle: Klucel (hydroxypropylcellulose) (HPC)
[2] = dose: 50.0 mg/kg/injection, schedule: Q01DX009 (ip), vehicle: Klucel (hydroxypropylcellulose) (HPC)
[3] = dose: 100.0 mg/kg/injection, schedule: Q01DX009 (ip), vehicle: Klucel (hydroxypropylcellulose) (HPC)
[4] = dose: 200.0 mg/kg/injection, schedule: Q01DX009 (ip), vehicle: Klucel (hydroxypropylcellulose) (HPC)
[5] = dose: 400.0 mg/kg/injection, schedule: Q01DX009 (ip), vehicle: Klucel (hydroxypropylcellulose) (HPC)
[6] = dose: 6.25 mg/kg/injection, schedule: Q01DX009 (ip), vehicle: Klucel (hydroxypropylcellulose) (HPC)
[7] = dose: 12.5 mg/kg/injection, schedule: Q01DX009 (ip), vehicle: saline with Tween-80
[8] = dose: 25.0 mg/kg/injection, schedule: Q01DX009 (ip), vehicle: saline with Tween-80
[9] = dose: 50.0 mg/kg/injection, schedule: Q01DX009 (ip), vehicle: saline with Tween-80
[10] = dose: 100.0 mg/kg/injection, schedule: Q01DX009 (ip), vehicle: saline
[11] = dose: 200.0 mg/kg/injection, schedule: Q01DX009 (ip), vehicle: saline
[12] = dose: 6.25 mg/kg/injection, schedule: Q01DX009 (ip), vehicle: saline
[13] = dose: 12.5 mg/kg/injection, schedule: Q01DX009 (ip), vehicle: saline
[14] = dose: 25.0 mg/kg/injection, schedule: Q01DX009 (ip), vehicle: saline
[15] = dose: 50.0 mg/kg/injection, schedule: Q01DX009 (ip), vehicle: saline
[16] = dose: 100.0 mg/kg/injection, schedule: Q01DX009 (ip), vehicle: saline with Tween-80
[17] = dose: 200.0 mg/kg/injection, schedule: Q01DX009 (ip), vehicle: saline with Tween-80
[18] = dose: 6.25 mg/kg/injection, schedule: Q01DX009 (ip), vehicle: saline with Tween-80

Compound: COc1cc(C(=O)N=Nc2c(O)[nH]c3ccc(Br)cc23)cc(OC)c1OC
- T/C [1]: 98 % of control
- T/C [2]: 109 % of control
- T/C [3]: 86 % of control

Compound: CCN(C(=O)Nc1ccccc1)c1ccccc1
- T/C (dose: 100.0 mg/kg/injection, schedule: Q04DX003 (ip), vehicle: saline with Tween-80): 94 % of control
- T/C (dose: 200.0 mg/kg/injection, schedule: Q04DX003 (ip), vehicle: saline with Tween-80): 100 % of control
- T/C (dose: 400.0 mg/kg/injection, schedule: Q04DX003 (ip), vehicle: saline with Tween-80): 97 % of control

Compound: CCOC1=C(N2CC2)C(=O)C(OCC)=C(N2CC2)C1=O
- T/C (dose: 0.5 mg/kg/injection, schedule: Q01DX009 (ip), vehicle: saline): 105 % of control
- T/C (dose: 2.0 mg/kg/injection, schedule: Q01DX009 (ip), vehicle: saline): 121 % of control

Compound: Cc1cccc(C)c1NC(=O)c1cccc(C(=O)Nc2c(C)cccc2C)c1
- T/C [3]: 100 % of control
- T/C [4]: 94 % of control
- T/C [5]: 91 % of control

Compound: O=C1CCNC(=O)N1OS(=O)(=O)c1ccccc1
- T/C [6]: 106 % of control
- T/C (dose: 12.5 mg/kg/injection, schedule: Q01DX009 (ip), vehicle: Klucel (hydroxypropylcellulose) (HPC)): 100 % of control
- T/C [1]: 98 % of control

Compound: COc1cccc(CNc2ccc(SC)cc2)c1OC
- T/C [3]: 100 % of control
- T/C [4]: 93 % of control
- T/C [5]: 93 % of control

Compound: CC1=CCC2(C)C(=O)CC3(C)C(CCC4C5(C)CCC(=O)C(C)(C)C5CCC43C)C2C1C (configuration not stated)
- T/C (dose: 1.75 mg/kg/injection, schedule: Q01DX008 (ip), vehicle: saline): 100 % of control
- T/C (dose: 3.5 mg/kg/injection, schedule: Q01DX008 (ip), vehicle: saline): 100 % of control
- T/C (dose: 7.0 mg/kg/injection, schedule: Q01DX008 (ip), vehicle: saline): 94 % of control
- T/C (dose: 14.0 mg/kg/injection, schedule: Q01DX008 (ip), vehicle: saline): 99 % of control

Compound: CC(C)[NH-].CC(C)[NH-].O.O.[Cl][Pt+2][Cl]
- T/C (dose: 3.12 mg/kg/injection, schedule: Q01DX009 (ip), vehicle: dextrose): 118 % of control
- T/C (dose: 3.13 mg/kg/injection, schedule: Q01DX009 (ip), vehicle: dextrose): 122 % of control
- T/C (dose: 12.5 mg/kg/injection, schedule: Q01DX009 (ip), vehicle: dextrose): 164 % of control and 168 % of control

Compound: O=C(Nc1cc(C(F)(F)F)ccc1Cl)c1ccccc1
- T/C [3]: 94 % of control
- T/C [4]: 91 % of control
- T/C [5]: 94 % of control

Compound: Cc1cc(N)c2cc(NC(=O)CCCCCC(=O)Nc3ccc4nc(C)cc(N)c4c3)ccc2n1
- T/C [7]: 90 % of control
- T/C [8]: 98 % of control
- T/C [9]: 110 % of control

Compound: c1ccc(COc2ccc(Nc3ccccc3)cc2)cc1
- T/C [3]: 106 % of control
- T/C [4]: 109 % of control
- T/C [5]: 112 % of control

Compound: c1cc2c(c(NC3=NCCCS3)c1)CCCC2
- T/C [2]: 106 % of control
- T/C [3]: 96 % of control
- T/C [4]: 96 % of control

Compound: CCCCOC(=O)C(CC)(CC)C(=O)OCCCC
- T/C [10]: 110 % of control
- T/C [11]: 113 % of control
- T/C (dose: 400.0 mg/kg/injection, schedule: Q01DX009 (ip), vehicle: saline): 93 % of control

Compound: CC(N)C(O)c1cccc(O)c1 (configuration not stated)
- T/C [12]: 94 % of control
- T/C [13]: 102 % of control
- T/C [14]: 105 % of control
- T/C [15]: 100 % of control

Compound: O=c1oc(-c2cccc([N+](=O)[O-])c2)nc2ccccc12
- T/C [2]: 106 % of control
- T/C [3]: 86 % of control

Compound: COc1cc(Cc2nccc3cc(OC)c(OC)cc23)c(C(C)=O)cc1OC
- T/C (dose: 3.12 mg/kg/injection, schedule: Q01DX009 (ip), vehicle: saline): 93 % of control
- T/C [12]: 102 % of control
- T/C [13]: 97 % of control
- T/C [14]: 103 % of control
- T/C [15]: 100 % of control

Compound: Cc1nc(NCc2ccccc2)c2cc[nH]c2n1
- T/C (dose: 0.04 mg/kg/injection, schedule: Q01DX009 (ip), vehicle: saline): 116 % of control
- T/C (dose: 0.09 mg/kg/injection, schedule: Q01DX009 (ip), vehicle: saline): 123 % of control
- T/C (dose: 0.39 mg/kg/injection, schedule: Q01DX009 (ip), vehicle: saline): 113 % of control

Compound: Cc1ccc(C(=O)CCCCl)cc1C
- T/C [16]: 100 % of control
- T/C [17]: 106 % of control
- T/C (dose: 400.0 mg/kg/injection, schedule: Q01DX009 (ip), vehicle: saline with Tween-80): 97 % of control

Compound: CC1CCCCN1CCNc1ccc(CO)c2sc3ccccc3c(=O)c12 (configuration not stated)
- T/C [8]: 112 % of control
- T/C [9]: 124 % of control
- T/C [16]: 121 % of control

Compound: NC(N)=NC(N)=Nc1ccc(-c2ccc(N=C(N)N=C(N)N)cc2)cc1
- T/C [18]: 102 % of control
- T/C [7]: 96 % of control

Compound: Nc1nc(N)c2nc(CNc3ccc(C(=O)NC(CCC(=O)O)C(=O)O)cc3)cnc2n1 (configuration not stated)
- T/C (dose: 0.03 mg/kg/injection, schedule: Q01DX009 (ip), vehicle: saline with Tween-80): 91 % of control
- T/C (dose: 0.13 mg/kg/injection, schedule: Q01DX009 (ip), vehicle: saline with Tween-80): 102 % of control
- T/C (dose: 0.25 mg/kg/injection, schedule: Q01DX009 (ip), vehicle: saline with Tween-80): 91 % of control and 95 % of control

Compound: ClC1CC[N-]CC1.ClC1CC[N-]CC1.O=C(O)CC(=O)O.[Pt+2]
- T/C [7]: 96 % of control
- T/C [8]: 95 % of control
- T/C [9]: 96 % of control
- T/C [16]: 95 % of control
- T/C [17]: 104 % of control

Compound: O=C(OCOC(=O)c1ccccc1)c1ccccc1
- T/C [3]: 120 % of control
- T/C [4]: 106 % of control
- T/C [5]: 114 % of control

Compound: CC(C)(C)OC(=O)NC(CCCCNC(=O)OCc1ccccc1)C(=O)O (configuration not stated)
- T/C [9]: 107 % of control
- T/C [16]: 90 % of control

Compound: COc1cccc2c1C(=O)c1c(O)c3c(c(O)c1C2=O)C[C@@](O)(/C(C)=N\NC=O)C[C@@H]3OC1CC(N)C(O)C(C)O1 (some centres not stated)
- T/C (dose: 0.38 mg/kg/injection, schedule: Q01DX009 (ip), vehicle: saline): 112 % of control
- T/C (dose: 0.75 mg/kg/injection, schedule: Q01DX009 (ip), vehicle: saline): 117 % of control
- T/C (dose: 1.5 mg/kg/injection, schedule: Q01DX009 (ip), vehicle: saline): 150 % of control
- T/C (dose: 3.0 mg/kg/injection, schedule: Q01DX009 (ip), vehicle: saline): 174 % of control
- T/C (dose: 6.0 mg/kg/injection, schedule: Q01DX009 (ip), vehicle: saline): 216 % of control
- T/C (dose: 12.0 mg/kg/injection, schedule: Q01DX009 (ip), vehicle: saline): 211 % of control

Compound: CNC(=O)OCc1c(COC(=O)NC)c(C)n(-c2ccc(OC)cc2)c1C
- T/C (dose: 3.12 mg/kg/injection, schedule: Q01DX009 (ip), vehicle: Klucel (hydroxypropylcellulose) (HPC)): 113 % of control
- T/C [6]: 111 % of control

Compound: CC(=O)Nc1cc(N(CCOS(C)(=O)=O)CCOS(C)(=O)=O)ccc1N=O
- T/C (dose: 75.0 micrograms/kg/injection, schedule: Q04DX003 (ip), vehicle: saline): 111 % of control
- T/C (dose: 100.0 micrograms/kg/injection, schedule: Q01DX009 (ip), vehicle: saline): 121 % of control
- T/C (dose: 150.0 micrograms/kg/injection, schedule: Q04DX003 (ip), vehicle: saline): 110 % of control
- T/C (dose: 300.0 micrograms/kg/injection, schedule: Q04DX003 (ip), vehicle: saline): 109 % of control

Compound: O=c1cc(-c2ccccc2)[nH]c(-c2ccccc2)c1
- T/C (dose: 8.0 mg/kg/injection, schedule: Q01DX009 (ip), vehicle: saline with Tween-80): 95 % of control
- T/C (dose: 18.0 mg/kg/injection, schedule: Q01DX009 (ip), vehicle: saline with Tween-80): 97 % of control

Compound: CN1CCN(Cc2c(O)ccc3c4c(c(=O)oc23)CCCC4)CC1
- T/C (dose: 32.0 mg/kg/injection, schedule: Q01DX009 (ip), vehicle: Klucel (hydroxypropylcellulose) (HPC)): 105 % of control
- T/C (dose: 64.0 mg/kg/injection, schedule: Q01DX009 (ip), vehicle: Klucel (hydroxypropylcellulose) (HPC)): 100 % of control
- T/C (dose: 128.0 mg/kg/injection, schedule: Q01DX009 (ip), vehicle: Klucel (hydroxypropylcellulose) (HPC)): 100 % of control

Compound: CNc1ccc(O)cc1
- T/C [18]: 92 % of control
- T/C [7]: 92 % of control
- T/C [8]: 95 % of control

Compound: N=c1ccn2c(n1)OC1C(O)C(CO)OC12 (configuration not stated)
- T/C [13]: 98 % of control
- T/C [14]: 96 % of control and 109 % of control
- T/C [15]: 102 % of control and 108 % of control and 117 % of control
- T/C (dose: 100.0 mg/kg/injection, schedule: Q01DX009 (ip), vehicle: saline sonified): 104 % of control
- T/C [10]: 120 % of control and 105 % of control
- T/C (dose: 200.0 mg/kg/injection, schedule: Q01DX009 (ip), vehicle: saline sonified): 104 % of control
- T/C [11]: 114 % of control and 124 % of control
- T/C (dose: 400.0 mg/kg/injection, schedule: Q01DX009 (ip), vehicle: saline sonified): 110 % of control
